The values below come from US8993717B2, “Gadd45beta targeting agents” (Imperial Innovations Limited, priority 2009, dated 2015).

Series [1] has as its target T1, Gadd45β/MKK7 interaction (Homo sapiens, UniProt O14733).
T1 construct: The GST-fused full-length kinase was coated for 16 h at 4° C., at a concentration of 42 nM; made in house
T1 sequence (O14733 1-419): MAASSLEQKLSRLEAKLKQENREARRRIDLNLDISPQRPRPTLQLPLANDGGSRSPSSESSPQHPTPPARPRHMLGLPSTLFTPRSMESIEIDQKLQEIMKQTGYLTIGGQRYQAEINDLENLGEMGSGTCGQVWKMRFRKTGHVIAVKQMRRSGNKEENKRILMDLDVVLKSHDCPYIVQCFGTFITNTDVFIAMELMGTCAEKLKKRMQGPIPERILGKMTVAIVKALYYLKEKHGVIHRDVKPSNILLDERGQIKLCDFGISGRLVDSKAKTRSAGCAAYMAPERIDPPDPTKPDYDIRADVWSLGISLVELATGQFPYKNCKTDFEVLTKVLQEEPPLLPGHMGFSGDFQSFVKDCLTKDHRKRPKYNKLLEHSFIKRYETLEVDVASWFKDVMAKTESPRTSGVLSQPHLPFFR
The series is described as follows: ELISA competition assay after 48-hr pre-incubation with human serum at 37° C. Format: binding. The settings on record: for stability after pre-incubation with human serum: result in words. The protocol: In FIG. 4, Gadd45β/MKK7 binding, competition ELISA assays were carried out to determine the stability of Z-conjugated D-tetrapeptides in human serum. […] ELISA were performed as described in FIG. 3 C. Briefly, 100 μl of 42 nM of recombinant GST-MKK7 in ELISA buffer (25 mM Tris pH 7.5, 150 mM NaCl, 1 mM DTT, 1 mM EDTA) were coated onto wells of 96-well plates by overnight incubation at 4° C. After blocking with 2% of NFDM for 1 hr at 37° C., plates were washed with TPBS, and then 21 nM of recombinant, biotinylated human (h)Gadd45β were added to the wells together with increasing concentrations of tetrapeptides which had either been subjected or had not been subjected to pre-incubation with human serum, as indicated. For a further discussion of the conditions used for the competition ELISA assay, the reader is directed to Tornatore et al 2008 JMB, 378: 97-111 and the references therein.

Another series concerns BMSCs, PBMNCs and MSCs. The series is described as follows: Viability/proliferation of primary untransformed human cells. The series is classed as cell-based. The note with it: up to 100 μM; 48 hrs or 144 hrs. The protocol:
(§1) In order to determine the in vitro therapeutic index of Z-/mDTPs, viability and proliferation assays were also performed with primary untransformed cells of both human and mouse origin, after treatment with either 10 μM or 100 μM of Z-DTP1, Z-DTP2 and Z-DNC. To this end, bone marrow stromal cells (BMSCs) peripheral blood mononuclear cells (PBMNCs) and mesenkymal stem cells (MSCs) were purified from healthy individuals after Ficoll-Hypaque density separation, in accordance with the protocols reported in the reference by Piva R. et all 2008 Blood 111: 2765-2775). BMSCs, PBMNCs, and MSCs cells were then treated for the times indicated and with the peptide concentrations specified in FIGS. 15A and 15B. To further establish the specificity of the cytotoxic activity of Z-/mDTPs for cancer cells, we also used primary B and T lymphocytes purified from the spleen and lymph nodes of mice, respectively, essentially as described in the reference by Shirakawa et al 2010 Cell Mal immunology 1-12. B and T cells were then activated by simulation with 1 ng/mL of LPS for 16 hrs and subsequently treated with 100 μM of Z-DTP1, Z-DTP2 or Z-DNC for 72 hrs as shown in FIG. 15B.

Series [2] concerns primary B and T lymphocytes. Description: [3H]thymidine incorporation in purified primary B and T lymphocytes. Format: cell-based, mouse. The note with it: 100 μM, 72 hrs. As for the experimental part: as §1
The test system of series [3] is KMS11 multiple myeloma cells. The series is described as follows: [3H]thymidine incorporation assay in KMS11. Format: cell-based, human. The note with it: read-out: IC50 [H^3] thymidine incorporation assay in KMS11. The protocol: Cultures of multiple myeloma cells and treatments with Z-DTPs were carried out as described in Example 8 (see below). The effects of Z-DTPs on the survival/proliferation of multiple myeloma cells were evaluated by the use of [^3H]thymidine) incorporation assays, performed as also described in Example 8. The amount of cell proliferation measured with each of the Z-DTPs' concentrations used and with the untreated cultures (i.e. cultures incubated with medium alone), was expressed as counts per minute (c.p.m.)—which directly correlate with the extent of cell proliferation. All experiments were performed in triplicate.
In these latter assays, the effects of Z-DTPs, Ac-DTPs and Z-LTPs on the survival/proliferation of tumour cell lines was investigated by measuring DNA synthesis using standard tritiated thymidine ([^3H]thymidine; [^3H]-TdR) uptake assays. In the analyses shown, cells were incubated for 24, 72, 120 or 144 hrs at 37° C. in the presence or absence of control or bioactive tetrapeptides, as indicated, then subjected to an additional incubation for 18 hrs with [^3H]-TdR (0.037 MBq/well, equivalent to […]). Cells were subsequently harvested onto glass fibre filter mats using a 96-well plate automated cell harvester, after which scintillation fluid was added, and [^3H]thymidine incorporation measured by liquid scintillation spectroscopy on a beta counter. The results are expressed as the percentages of the counts per minute (c.p.m.) (directly correlating with the extent of cell proliferation) measured with tetrapeptide-treated cultures relative to the c.p.m. measured with the corresponding cultures incubated with medium alone (untreated cells). All experiments were performed in triplicate.
A general note: Incorporation of labelled thymidine or its analogues reports DNA synthesis.

Series [4] concerns the target T1, Gadd45β/MKK7 interaction. The series is described as follows: Co-immunoprecipitation assay, lysates of HEK-293 cells expressing HA-Gadd45β and FLAG-MKK7. The series is classed as binding. The note with it: 1 or 5 nM peptide. The protocol:
Human Embryonic Kidney (HEK-293) were cultured in Dulbecco's modified Eagle's medium (DMEM) supplemented with 10% fetal calf serum (FCS), 100 units/ml penicillin, […] streptomycin, and 1% glutamine. HEK-293 cells (2.2×10^6) were seeded onto 10 cm^2 tissue-culture dishes, and the following day, were transfected with pcDNA-FLAG-MKK7 and pcDNA-HA-Gadd45β plasmids, using a standard Ca3(PO4)2 precipitation technique (Papa, S et al., (2004) Nat. Cell Biol. 6, 146-153). Forty-eight hours after transfection, the cells were washed once with PBS, then resuspended and incubated for 30 min at 4° C. in lysis buffer (20 mM HEPES, 350 mM NaCl, 20% glycerol, 1 mM MgCl2, 0.2 mM EGTA, 1 mM DTT, 1 mM Na3VO4, and 50 mM NaF) supplemented with protease inhibitors (1 mM phenylmethylsulfonylfluoride, 10 μM chymostatin, 2 μg/ml aprotinin, and 2 μg/ml leupeptin) with occasional gentle shaking. The lysed cells were collected and then centrifuged at 45,000×g for 40 min. The resulting cleared cell lysates were used for further analysis.
Immunoprecipitations were performed using essentially the same conditions described in Papa, S et al., (2004) Nat. Cell Biol. 6, 146-153 and the references therein, and an anti-FLAG antibody which precipitated FLAG-tagged MKK7. […]

Where two headings read alike, the source gives them in different places. Square brackets hold non-standard residues; d marks the D form. Peptide text beside a SMILES is read from it. * marks the point of attachment. Cbz = O=C(OCc1ccccc1)*

In the case of `NC(=O)[C@@H](Cc1ccccc1)NC(=O)[C@@H](Cc1c[nH]cn1)NC(=O)[C@@H](CC(=O)O)NC(=O)[C@@H](Cc1ccc(O)cc1)NC(=O)OCc1ccccc1` [Compound 1, Z-Tyr-Asp-His-Phe-NH2] (Cbz-[dY][dD][dH][dF]-NH2), on Gadd45β/MKK7 interaction [1], the IC50 came to 0.19 nM and the “stability after pre-incubation with human serum” value is given as “completely stable”. In addition, in the series with BMSCs, PBMNCs and MSCs, the “toxicity to normal primary human cells (BMSCs, PBMNCs, MSCs)” value is on record as “no toxicity”. Also, in series [2], the “toxicity to primary B and T lymphocytes from mice” value is “no toxicity”.
In the case of `N=C(N)NCCC[C@@H](NC(=O)[C@@H](CCC(=O)O)NC(=O)[C@@H](Cc1ccc(O)cc1)NC(=O)OCc1ccccc1)C(=O)N[C@H](Cc1ccccc1)C(N)=O` [Compound 9, Z-D-Tyr-D-Glu-D-Arg-D-Phe-NH2] (Cbz-[dY][dE][dR][dF]-NH2), the IC50 on Gadd45β/MKK7 interaction [1] amounted to 0.18 nM; in series [3] (Day 1, listed as Z-DTP2), 2880 nM; in series [3] (Day 1) it was 2900 nM; in series [3] (Day 3), 25.7 nM; in series [3] (Day 6), 66 nM. For the same compound, at Gadd45β/MKK7 interaction [1], the “stability after pre-incubation with human serum” value is given as “completely stable”. Moreover, the “toxicity to normal primary human cells (BMSCs, PBMNCs, MSCs)” value in the series with BMSCs, PBMNCs and MSCs is reported as “no toxicity”. For the same compound, the “toxicity to primary B and T lymphocytes from mice” value in series [2] is “no toxicity”.
As for `CC(=O)N[C@H](Cc1ccc(O)cc1)C(=O)N[C@H](CCCNC(=N)N)C(=O)N[C@H](Cc1ccccc1)C(N)=O` [Compound 17, Ac-D-Tyr-D-Arg-D-Phe-NH2] (Ac-[dY]-[dR]-[dF]-NH2), the IC50 in series [3] (Day 1) was found to be 1000 nM; in series [3] (Day 6, listed as mDTP3), 16 nM; in series [3] (Day 6), 25 nM.
Consider `CC(=O)N[C@H](Cc1ccc(O)cc1)C(=O)N[C@H](CC(=O)O)C(=O)N[C@H](Cc1c[nH]cn1)C(=O)N[C@H](Cc1ccccc1)C(N)=O` [DTP1, Acetyl-(D-Tyr)-(D-Asp)-(D-His)-(D-Phe)-NH2] (Ac-[dY][dD][dH][dF]-NH2), for which, on Gadd45β/MKK7 interaction [4], the “disruption of the Gadd45β/MKK7 interaction in co-immunoprecipitation” value was “no or very little Gadd45β”.
On to `CC(=O)N[C@H](Cc1ccc(O)cc1)C(=O)N[C@H](CCC(=O)O)C(=O)N[C@H](CCCNC(=N)N)C(=O)N[C@H](Cc1ccccc1)C(N)=O` [DTP2, Acetyl-(D-Tyr)-(D-Glu)-(D-Arg)-(D-Phe)-NH2] (Ac-[dY][dE][dR][dF]-NH2), for which, at Gadd45β/MKK7 interaction [4], the “disruption of the Gadd45β/MKK7 interaction in co-immunoprecipitation” value is “no or very little Gadd45β”.
